The NIST ThermoML archive (doi:10.1016/j.jct.2010.04.026)
Several values for one entry are separate records, joined by “and”; a condition that tells them apart may be missing. Equal values may be shown once. ± gives the expanded uncertainty stated by the source.

Details: Crystal; for mass density: 295.1 K, 101.33 kPa, pellet size and mass; for vapor or sublimation pressure: Calculated from knudsen effusion weight loss

Nc1ccc2cn[nH]c2c1 [6-aminoindazole]
Details | mass density [kg/m3] | vapor or sublimation pressure
– | 1450 ± 30 | –
366.14 K | – | 0.0001031 ± 5.2e-06 kPa and 0.0001023 ± 5.1e-06 kPa and 0.0001025 ± 5.1e-06 kPa
368.17 K | – | 0.0001275 ± 6.4e-06 kPa and 0.0001257 ± 6.3e-06 kPa and 0.0001221 ± 6.1e-06 kPa
370.18 K | – | 0.0001528 ± 7.7e-06 kPa and 0.0001513 ± 7.6e-06 kPa and 0.0001468 ± 7.4e-06 kPa
372.14 K | – | 0.0001919 ± 9.6e-06 kPa and 0.0001878 ± 9.4e-06 kPa and 0.0001923 ± 9.6e-06 kPa
374.16 K | – | 0.0002356 ± 1.2e-05 kPa and 0.000234 ± 1.2e-05 kPa and 0.0002228 ± 1.1e-05 kPa
376.17 K | – | 0.0002875 ± 1.4e-05 kPa and 0.0002739 ± 1.4e-05 kPa
378.15 K | – | 0.0003523 ± 1.8e-05 kPa and 0.0003592 ± 1.8e-05 kPa and 0.0003463 ± 1.7e-05 kPa
380.16 K | – | 0.0004332 ± 2.2e-05 kPa and 0.000428 ± 2.1e-05 kPa and 0.0004138 ± 2.1e-05 kPa
382.17 K | – | 0.0005244 ± 2.6e-05 kPa and 0.0005044 ± 2.5e-05 kPa and 0.0005114 ± 2.6e-05 kPa
384.15 K | – | 0.0006281 ± 3.1e-05 kPa and 0.0006132 ± 3.1e-05 kPa and 0.0006304 ± 3.2e-05 kPa
386.16 K | – | 0.0007813 ± 3.9e-05 kPa and 0.0007708 ± 3.9e-05 kPa and 0.0007396 ± 3.7e-05 kPa
388.17 K | – | 0.0009109 ± 4.6e-05 kPa and 0.0008984 ± 4.5e-05 kPa and 0.0008878 ± 4.4e-05 kPa

Nc1ccc2[nH]ncc2c1 [5-aminoindazole]
Details | mass density [kg/m3] | vapor or sublimation pressure
– | 1400 ± 30 | –
358.12 K | – | 8.43e-05 ± 4.2e-06 kPa and 8.3e-05 ± 4.2e-06 kPa
360.18 K | – | 0.000101 ± 5.1e-06 kPa and 0.0001064 ± 5.3e-06 kPa and 0.000103 ± 5.2e-06 kPa
362.16 K | – | 0.0001305 ± 6.5e-06 kPa and 0.0001265 ± 6.3e-06 kPa and 0.0001259 ± 6.3e-06 kPa
364.11 K | – | 0.0001563 ± 7.8e-06 kPa and 0.0001589 ± 8e-06 kPa and 0.0001556 ± 7.8e-06 kPa
366.17 K | – | 0.0001991 ± 1e-05 kPa and 0.0001966 ± 9.8e-06 kPa and 0.0001879 ± 9.4e-06 kPa
368.17 K | – | 0.0002397 ± 1.2e-05 kPa and 0.0002332 ± 1.2e-05 kPa and 0.0002247 ± 1.1e-05 kPa
370.13 K | – | 0.0002948 ± 1.5e-05 kPa and 0.0002986 ± 1.5e-05 kPa
372.18 K | – | 0.0003483 ± 1.7e-05 kPa and 0.0003696 ± 1.8e-05 kPa and 0.0003499 ± 1.7e-05 kPa
374.15 K | – | 0.0004435 ± 2.2e-05 kPa and 0.0004334 ± 2.2e-05 kPa and 0.0004198 ± 2.1e-05 kPa
376.13 K | – | 0.0005419 ± 2.7e-05 kPa and 0.000534 ± 2.7e-05 kPa and 0.0005297 ± 2.7e-05 kPa
378.17 K | – | 0.0006618 ± 3.3e-05 kPa and 0.000668 ± 3.3e-05 kPa and 0.0006232 ± 3.1e-05 kPa
380.16 K | – | 0.0007639 ± 3.8e-05 kPa and 0.0007696 ± 3.9e-05 kPa and 0.0007519 ± 3.8e-05 kPa
